Reference: patent US20230210848A1, “CORONAVIRUS INFECTION THERAPEUTIC AGENT FORMED THROUGH COMBINATION OF PYRAZINE DERIVATIVE AND ANOTHER CORONAVIRUS INFECTION THERAPEUTIC DRUG” (priority 2020, published 2023)

Test system: HCoV-OC43
Test: Test Example 2: CPE inhibition in HCoV-OC43 infected BHK-21 cells, single or combination use
Assay type: cell-based, Human coronavirus (HCoV-OC43)
[1] = Betacoronavirus 1, OC43, BHK-21, read-out: CPE inhibition rate

SMILES: NC(=O)c1nc(F)cnc1O [T-705, favipiravir]
- CPE inhibition rate (single use of 1000 μM of T-705, BHK-21 cells): 79%

SMILES: CCC(CC)COC(=O)[C@H](C)N[P@](=O)(OC[C@H]1O[C@@](C#N)(c2ccc3c(N)ncnn23)[C@H](O)[C@@H]1O)Oc1ccccc1 [remdesivir]
- inhibition at 0.1 µM [1]: 51%
- inhibition at 0.3 µM [1]: 80%
